How the values were obtained:
Assay in all cases: relative viability (nuclei count vs DMSO), 5 days (fraction); higher = more cells survive
NCI-H1651 = tested on: NCI-H1651
In short: (§1)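 Lung cancer cell lines, seeded in 1536-well plates, were treated the following day by pin tool with a single drug or with five library-drug doses (not always all listed) in √10 steps on top of a fixed anchor-drug dose. Cells were fixed and nuclei stained in one step after 5 days, and nuclei were counted. Relative viability is the nuclei count for treated wells divided by that for vehicle wells, reported as medians of duplicate plates.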

NCI-H596 = tested on: NCI-H596
In short: as §1

NCI-H650 = tested on: NCI-H650
In short: as §1

NCI-H1944 = tested on: NCI-H1944
In short: as §1

NCI-H2023 = tested on: NCI-H2023
In short: as §1

NCI-H460 = tested on: NCI-H460
In short: as §1

ABC-1 = tested on: ABC-1
In short: as §1

LCLC-97TM1 = tested on: LCLC-97TM1
In short: as §1

NCI-H727 = tested on: NCI-H727
In short: as §1

H3255 = tested on: H3255
In short: as §1

CAL-12T = tested on: CAL-12T
In short: as §1

PC-3 [JPC-3] = tested on: PC-3 [JPC-3]
In short: as §1

BEN = tested on: BEN
In short: as §1

NCI-H441 = tested on: NCI-H441
In short: as §1

NCI-H661 = tested on: NCI-H661
In short: as §1

NCI-H1650 = tested on: NCI-H1650
In short: as §1

A-427 = tested on: A-427
In short: as §1

NCI-H2087 = tested on: NCI-H2087
In short: as §1

NCI-H520 = tested on: NCI-H520
In short: as §1

NCI-H1915 = tested on: NCI-H1915
In short: as §1

LC-2-ad = tested on: LC-2-ad
In short: as §1

201T = tested on: 201T
In short: as §1

Nc1ccn([C@@H]2O[C@H](CO)[C@@H](O)[C@@H]2O)c(=O)n1 [Cytarabine] + O=C(c1cc(Cc2n[nH]c(=O)c3ccccc23)ccc1F)N1CCN(C(=O)C2CC2)CC1 [Olaparib] (partner 8 µM)
relative viability (NCI-H1651; first compound 0.005 µM): 0.187 | relative viability (NCI-H1651; first compound 0.01581 µM): 0.193 | relative viability (NCI-H1651; first compound 0.05 µM): 0.181 | relative viability (NCI-H1651; first compound 0.1581 µM): 0.199 | relative viability (NCI-H1651; first compound 0.5 µM): 0.168 | relative viability (NCI-H596; first compound 0.005 µM): 0.678 | relative viability (NCI-H596; first compound 0.01581 µM): 0.692 | relative viability (NCI-H596; first compound 0.05 µM): 0.591 | relative viability (NCI-H596; first compound 0.1581 µM): 0.549 | relative viability (NCI-H596; first compound 0.5 µM): 0.435 | relative viability (NCI-H650; first compound 0.005 µM): 0.363 | relative viability (NCI-H650; first compound 0.01581 µM): 0.277 | relative viability (NCI-H650; first compound 0.05 µM): 0.169 | relative viability (NCI-H650; first compound 0.1581 µM): 0.14 | relative viability (NCI-H650; first compound 0.5 µM): 0.156 | relative viability (NCI-H1944; first compound 0.005 µM): 0.438 | relative viability (NCI-H1944; first compound 0.01581 µM): 0.33 | relative viability (NCI-H1944; first compound 0.05 µM): 0.322 | relative viability (NCI-H1944; first compound 0.1581 µM): 0.204 | relative viability (NCI-H1944; first compound 0.5 µM): 0.156 | relative viability (NCI-H2023; first compound 0.005 µM): 0.382 | relative viability (NCI-H2023; first compound 0.01581 µM): 0.276 | relative viability (NCI-H2023; first compound 0.05 µM): 0.236 | relative viability (NCI-H2023; first compound 0.1581 µM): 0.0812 | relative viability (NCI-H2023; first compound 0.5 µM): 0.0898 | relative viability (NCI-H460; first compound 0.005 µM): 0.355 | relative viability (NCI-H460; first compound 0.01581 µM): 0.367 | relative viability (NCI-H460; first compound 0.05 µM): 0.237 | relative viability (NCI-H460; first compound 0.1581 µM): 0.0662 | relative viability (NCI-H460; first compound 0.5 µM): 0.0537 | relative viability (ABC-1; first compound 0.005 µM): 0.7 | relative viability (ABC-1; first compound 0.01581 µM): 0.756 | relative viability (ABC-1; first compound 0.05 µM): 0.991 | relative viability (ABC-1; first compound 0.1581 µM): 0.672 | relative viability (ABC-1; first compound 0.5 µM): 0.61 | relative viability (LCLC-97TM1; first compound 0.005 µM): 0.34 | relative viability (LCLC-97TM1; first compound 0.01581 µM): 0.333 | relative viability (LCLC-97TM1; first compound 0.05 µM): 0.183 | relative viability (LCLC-97TM1; first compound 0.1581 µM): 0.126 | relative viability (LCLC-97TM1; first compound 0.5 µM): 0.106 | relative viability (NCI-H727; first compound 0.005 µM): 0.659 | relative viability (NCI-H727; first compound 0.01581 µM): 0.541 | relative viability (NCI-H727; first compound 0.05 µM): 0.679 | relative viability (NCI-H727; first compound 0.1581 µM): 0.542 | relative viability (NCI-H727; first compound 0.5 µM): 0.566 | relative viability (H3255; first compound 0.005 µM): 0.569 | relative viability (H3255; first compound 0.01581 µM): 0.552 | relative viability (H3255; first compound 0.05 µM): 0.495 | relative viability (H3255; first compound 0.1581 µM): 0.526 | relative viability (H3255; first compound 0.5 µM): 0.446 | relative viability (CAL-12T; first compound 0.005 µM): 0.859 | relative viability (CAL-12T; first compound 0.01581 µM): 0.68 | relative viability (CAL-12T; first compound 0.05 µM): 0.537 | relative viability (CAL-12T; first compound 0.1581 µM): 0.288 | relative viability (CAL-12T; first compound 0.5 µM): 0.223 | relative viability (PC-3 [JPC-3]; first compound 0.005 µM): 0.508 | relative viability (PC-3 [JPC-3]; first compound 0.01581 µM): 1.09 | relative viability (PC-3 [JPC-3]; first compound 0.05 µM): 0.971 | relative viability (PC-3 [JPC-3]; first compound 0.1581 µM): 0.682 | relative viability (PC-3 [JPC-3]; first compound 0.5 µM): 0.617 | relative viability (BEN; first compound 0.005 µM): 0.822 | relative viability (BEN; first compound 0.01581 µM): 0.703 | relative viability (BEN; first compound 0.05 µM): 0.637 | relative viability (BEN; first compound 0.1581 µM): 0.447 | relative viability (BEN; first compound 0.5 µM): 0.384 | relative viability (NCI-H441; first compound 0.005 µM): 0.451 | relative viability (NCI-H441; first compound 0.01581 µM): 0.48 | relative viability (NCI-H441; first compound 0.05 µM): 0.375 | relative viability (NCI-H441; first compound 0.1581 µM): 0.354 | relative viability (NCI-H441; first compound 0.5 µM): 0.175 | relative viability (NCI-H661; first compound 0.005 µM): 0.677 | relative viability (NCI-H661; first compound 0.01581 µM): 0.773 | relative viability (NCI-H661; first compound 0.05 µM): 0.646 | relative viability (NCI-H661; first compound 0.1581 µM): 0.518 | relative viability (NCI-H661; first compound 0.5 µM): 0.398 | relative viability (NCI-H1650; first compound 0.005 µM): 0.638 | relative viability (NCI-H1650; first compound 0.01581 µM): 0.772 | relative viability (NCI-H1650; first compound 0.05 µM): 0.472 | relative viability (NCI-H1650; first compound 0.1581 µM): 0.268 | relative viability (NCI-H1650; first compound 0.5 µM): 0.168 | relative viability (A-427; first compound 0.005 µM): 0.479 | relative viability (A-427; first compound 0.01581 µM): 0.551 | relative viability (A-427; first compound 0.05 µM): 0.304 | relative viability (A-427; first compound 0.1581 µM): 0.223 | relative viability (A-427; first compound 0.5 µM): 0.253 | relative viability (NCI-H2087; first compound 0.005 µM): 0.413 | relative viability (NCI-H2087; first compound 0.01581 µM): 0.618 | relative viability (NCI-H2087; first compound 0.05 µM): 0.578 | relative viability (NCI-H2087; first compound 0.1581 µM): 0.348 | relative viability (NCI-H2087; first compound 0.5 µM): 0.19 | relative viability (NCI-H520; first compound 0.005 µM): 0.276 | relative viability (NCI-H520; first compound 0.01581 µM): 0.272 | relative viability (NCI-H520; first compound 0.05 µM): 0.337 | relative viability (NCI-H520; first compound 0.1581 µM): 0.263 | relative viability (NCI-H520; first compound 0.5 µM): 0.239 | relative viability (NCI-H1915; first compound 0.005 µM): 0.288 | relative viability (NCI-H1915; first compound 0.01581 µM): 0.253 | relative viability (NCI-H1915; first compound 0.05 µM): 0.261 | relative viability (NCI-H1915; first compound 0.1581 µM): 0.24 | relative viability (NCI-H1915; first compound 0.5 µM): 0.212 | relative viability (LC-2-ad; first compound 0.005 µM): 0.697 | relative viability (LC-2-ad; first compound 0.01581 µM): 0.617 | relative viability (LC-2-ad; first compound 0.05 µM): 0.65 | relative viability (LC-2-ad; first compound 0.1581 µM): 0.58 | relative viability (LC-2-ad; first compound 0.5 µM): 0.474 | relative viability (201T; first compound 0.005 µM): 0.832 | relative viability (201T; first compound 0.01581 µM): 0.877 | relative viability (201T; first compound 0.05 µM): 0.914 | relative viability (201T; first compound 0.1581 µM): 0.847 | relative viability (201T; first compound 0.5 µM): 0.827

— the supplement of paper PMC10307832
